Calls of active or inactive are those of the source. The calls are words filed in the database; no cut-off is given here.
Tests used:
MDA-MB-468 = assay: cells; conditions: Homo sapiens, MDA-MB-468, 96 h
Description: Antiproliferative activity against human MDA-MB-468 cells assessed as inhibition of cell growth incubated for 96 hrs cellcounting-lite analysis

MDA-MB-231 [1] = assay: cells; conditions: Homo sapiens, MDA-MB-231, 96 h
Description: Antiproliferative activity against human MDA-MB-231 cells assessed as inhibition of cell growth incubated for 96 hrs cellcounting-lite analysis

[2] = molecular target: Protein cereblon/Cyclin-K (Homo sapiens, UniProt O75909+Q96SW2); assay: PROTAC activity at CRBN/Cyclin K in human MDA-MB-231 cells assessed as reduction in cyclin K level incubated for 4 hrs by Western blot analysis; type: cell-based
Chain of Protein cereblon/Cyclin-K (O75909 whole entry): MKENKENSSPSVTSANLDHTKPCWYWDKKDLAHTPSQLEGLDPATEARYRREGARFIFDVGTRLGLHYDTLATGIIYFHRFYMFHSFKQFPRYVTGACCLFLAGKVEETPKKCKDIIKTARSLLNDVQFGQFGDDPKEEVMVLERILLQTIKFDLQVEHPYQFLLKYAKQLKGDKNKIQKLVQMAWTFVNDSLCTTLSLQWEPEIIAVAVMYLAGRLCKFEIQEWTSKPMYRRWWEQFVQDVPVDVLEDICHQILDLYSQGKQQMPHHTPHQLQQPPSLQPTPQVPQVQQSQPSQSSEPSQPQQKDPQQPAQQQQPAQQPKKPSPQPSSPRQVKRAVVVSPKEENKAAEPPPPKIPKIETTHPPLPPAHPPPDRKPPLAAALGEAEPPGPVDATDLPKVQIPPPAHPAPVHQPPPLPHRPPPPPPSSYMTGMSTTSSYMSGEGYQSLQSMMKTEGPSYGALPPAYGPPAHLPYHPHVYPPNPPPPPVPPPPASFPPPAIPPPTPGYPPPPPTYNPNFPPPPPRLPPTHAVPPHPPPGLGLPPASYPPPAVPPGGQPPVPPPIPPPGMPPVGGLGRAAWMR
Chain of Protein cereblon/Cyclin-K (Q96SW2 whole entry): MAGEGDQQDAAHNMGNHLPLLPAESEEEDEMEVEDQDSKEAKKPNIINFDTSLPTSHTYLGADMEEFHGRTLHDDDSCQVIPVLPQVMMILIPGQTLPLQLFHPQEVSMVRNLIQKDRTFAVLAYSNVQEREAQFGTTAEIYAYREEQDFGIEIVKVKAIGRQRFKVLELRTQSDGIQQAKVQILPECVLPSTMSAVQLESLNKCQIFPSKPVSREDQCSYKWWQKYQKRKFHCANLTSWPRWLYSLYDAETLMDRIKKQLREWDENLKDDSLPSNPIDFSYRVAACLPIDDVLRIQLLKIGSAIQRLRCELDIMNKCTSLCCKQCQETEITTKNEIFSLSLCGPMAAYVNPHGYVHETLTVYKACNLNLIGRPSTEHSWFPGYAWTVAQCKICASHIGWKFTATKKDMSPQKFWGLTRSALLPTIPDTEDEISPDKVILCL

MDA-MB-231 [3] = assay: Effect on ATM mRNA level in human MDA-MB-231 cells at 50 nM incubated for 6 hrs by qRT-PCR analysis; type: functional, cell-based
MDA-MB-231 [4] = assay: Effect on SMARCC1 mRNA level in human MDA-MB-231 cells at 50 nM incubated for 6 hrs by qRT-PCR analysis; type: functional, cell-based
MDA-MB-231 [5] = assay: Effect on FANCD2 mRNA level in human MDA-MB-231 cells at 50 nM incubated for 6 hrs by qRT-PCR analysis; type: functional, cell-based
MDA-MB-231 [6] = assay: Effect on BRCA1 mRNA level in human MDA-MB-231 cells at 50 nM incubated for 6 hrs by qRT-PCR analysis; type: functional, cell-based
MDA-MB-231 [7] = assay: Effect on ATR mRNA level in human MDA-MB-231 cells at 50 nM incubated for 6 hrs by qRT-PCR analysis; type: functional, cell-based
MDA-MB-231 [8] = assay: Effect on RAD51 level in human MDA-MB-231 cells at 50 nM incubated for 24 hrs by Western blot analysis; type: functional, cell-based
MDA-MB-231 [9] = assay: Effect on ATM level in human MDA-MB-231 cells at 50 nM incubated for 24 hrs by Western blot analysis; type: functional, cell-based
MDA-MB-231 [10] = assay: Effect on cleaved PARP level in human MDA-MB-231 cells at 50 nM incubated for 24 hrs by Western blot analysis; type: functional, cell-based
MDA-MB-231 [11] = assay: Effect on RAD51 mRNA level in human MDA-MB-231 cells at 50 nM incubated for 6 hrs by qRT-PCR analysis; type: functional, cell-based
MDA-MB-231 [12] = assay: Effect on FANCI mRNA level in human MDA-MB-231 cells at 50 nM incubated for 6 hrs by qRT-PCR analysis; type: functional, cell-based
MDA-MB-231 [13] = assay: Effect on alpha-tubulin level in human MDA-MB-231 cells at 50 nM incubated for 24 hrs by Western blot analysis; type: functional, cell-based
[14] = molecular target: T1, Cyclin-dependent kinase 12 (Homo sapiens, UniProt Q9NYV4); conditions: dose 200.0 nM
Target sequence in this assay (Q9NYV4 whole entry, looked up): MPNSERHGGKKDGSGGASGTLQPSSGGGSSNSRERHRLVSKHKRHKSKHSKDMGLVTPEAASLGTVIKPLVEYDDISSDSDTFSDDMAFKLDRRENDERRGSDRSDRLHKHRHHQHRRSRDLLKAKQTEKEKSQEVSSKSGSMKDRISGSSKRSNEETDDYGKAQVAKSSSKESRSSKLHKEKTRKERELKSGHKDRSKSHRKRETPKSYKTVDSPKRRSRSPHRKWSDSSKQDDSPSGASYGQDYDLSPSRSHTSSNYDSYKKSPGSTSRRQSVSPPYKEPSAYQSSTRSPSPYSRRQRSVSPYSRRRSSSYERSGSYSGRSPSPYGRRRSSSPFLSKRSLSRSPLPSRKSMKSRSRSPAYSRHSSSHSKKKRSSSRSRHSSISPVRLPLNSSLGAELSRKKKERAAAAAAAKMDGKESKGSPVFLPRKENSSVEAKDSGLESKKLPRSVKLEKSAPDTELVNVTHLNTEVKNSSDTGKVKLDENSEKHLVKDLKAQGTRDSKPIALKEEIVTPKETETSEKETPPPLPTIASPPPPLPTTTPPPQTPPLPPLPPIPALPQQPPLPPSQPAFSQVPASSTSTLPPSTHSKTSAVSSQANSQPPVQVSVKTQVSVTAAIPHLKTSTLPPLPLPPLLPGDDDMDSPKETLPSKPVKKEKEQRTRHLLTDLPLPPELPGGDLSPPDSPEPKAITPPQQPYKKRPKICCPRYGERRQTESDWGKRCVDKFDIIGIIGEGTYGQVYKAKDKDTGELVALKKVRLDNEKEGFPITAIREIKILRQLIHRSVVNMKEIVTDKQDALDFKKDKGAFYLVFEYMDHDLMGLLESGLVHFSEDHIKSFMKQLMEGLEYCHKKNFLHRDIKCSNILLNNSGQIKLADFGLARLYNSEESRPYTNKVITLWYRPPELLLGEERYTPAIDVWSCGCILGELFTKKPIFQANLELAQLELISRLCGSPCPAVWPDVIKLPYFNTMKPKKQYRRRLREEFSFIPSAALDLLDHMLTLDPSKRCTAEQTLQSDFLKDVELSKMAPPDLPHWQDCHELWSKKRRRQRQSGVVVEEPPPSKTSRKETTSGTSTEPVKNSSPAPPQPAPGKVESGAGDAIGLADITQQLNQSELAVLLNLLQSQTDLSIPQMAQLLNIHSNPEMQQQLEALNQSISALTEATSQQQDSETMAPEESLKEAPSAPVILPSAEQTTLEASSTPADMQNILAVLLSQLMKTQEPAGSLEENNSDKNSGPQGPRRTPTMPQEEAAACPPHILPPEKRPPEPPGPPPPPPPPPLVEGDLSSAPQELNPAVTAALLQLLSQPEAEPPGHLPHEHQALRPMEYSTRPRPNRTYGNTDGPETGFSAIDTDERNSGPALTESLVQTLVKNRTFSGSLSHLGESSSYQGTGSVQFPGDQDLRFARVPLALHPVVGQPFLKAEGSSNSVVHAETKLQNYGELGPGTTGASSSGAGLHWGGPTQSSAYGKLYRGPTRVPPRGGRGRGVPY
Description: Inhibition of CDK12 (unknown origin) at 200 nM relative to control

[15] = molecular target: T1, Cyclin-dependent kinase 12; assay: Inhibition of CDK12 (unknown origin) using GSRTPMY-NH2 as substrate in presence of ATP by ADP-glo assay
Target sequence in this assay (Q9NYV4 whole entry): as the sequence (Q9NYV4 whole entry, looked up) above

[16] = molecular target: T1, Cyclin-dependent kinase 12; conditions: dose 20.0 nM
Target sequence in this assay (Q9NYV4 whole entry, looked up): as above
Description: Inhibition of CDK12 (unknown origin) at 20 nM relative to control

[17] = molecular target: T1, Cyclin-dependent kinase 12; conditions: dose 2000.0 nM
Target sequence in this assay (Q9NYV4 whole entry, looked up): as above
Description: Inhibition of CDK12 (unknown origin) at 2000 nM relative to control

[18] = molecular target: T1, Cyclin-dependent kinase 12; assay: Inhibition of CDK12 in human MDA-MB-231 cells assessed as reduction in RNA Pol II CTD level at Ser2 residue at 10 uM incubated for 4 hrs by Western blot analysis; type: cell-based
Target sequence in this assay (Q9NYV4 whole entry, looked up): as above

[19] = molecular target: T1, Cyclin-dependent kinase 12; assay: Irreversible inhibition of CDK12 in human MDA-MB-231 cells at 10 uM pretreated with compound for 4 hrs followed by compound washout measured after 6 hrs; type: cell-based
Target sequence in this assay (Q9NYV4 whole entry, looked up): as above

[20] = molecular target: T1, Cyclin-dependent kinase 12; assay: Inhibition of CDK12 in human MDA-MB-231 cells incubated for 4 hrs by immunoblotting analysis; type: cell-based
Target sequence in this assay (Q9NYV4 whole entry, looked up): as above

[21] = molecular target: T1, Cyclin-dependent kinase 12; assay: Inhibition of CDK12 in human MDA-MB-231 cells assessed as reduction in RNA Pol II CTD level at Ser2 residue at 2000 nM incubated for 4 hrs by Western blot analysis; type: cell-based
[22] = molecular target: T1, Cyclin-dependent kinase 12; assay: Inhibition of CDK12 in human MDA-MB-231 cells at 100 nM measured upto 6 hrs by Western blot analysis; type: cell-based
[23] = molecular target: T1, Cyclin-dependent kinase 12; assay: Inhibition of CDK12 in human MDA-MB-231 cells incubated for 4 hrs; type: cell-based
[24] = molecular target: T1, Cyclin-dependent kinase 12; conditions: MDA-MB-231, dose 200.0 nM, time 4.0 hrs
[25] = molecular target: T1, Cyclin-dependent kinase 12; assay: Inhibition of CDK12 in human MDA-MB-231 cells pretreated with compound for 4 hrs followed by compound washout measured after 3 days; type: cell-based
Target sequence in this assay (Q9NYV4 whole entry): as the sequence (Q9NYV4 whole entry, looked up) above

[26] = molecular target: T1, Cyclin-dependent kinase 12; assay: Inhibition of CDK12 in human MDA-MB-231 cells incubated for 10 hrs; type: cell-based
Target sequence in this assay (Q9NYV4 whole entry): as the sequence (Q9NYV4 whole entry, looked up) above

[27] = molecular target: Cyclin-dependent kinase 13 (Homo sapiens, UniProt Q14004); assay: Inhibition of CDK13 (unknown origin) using GSRTPMY-NH2 as substrate in presence of ATP by ADP-glo assay
Chain of Cyclin-dependent kinase 13 (Q14004 whole entry): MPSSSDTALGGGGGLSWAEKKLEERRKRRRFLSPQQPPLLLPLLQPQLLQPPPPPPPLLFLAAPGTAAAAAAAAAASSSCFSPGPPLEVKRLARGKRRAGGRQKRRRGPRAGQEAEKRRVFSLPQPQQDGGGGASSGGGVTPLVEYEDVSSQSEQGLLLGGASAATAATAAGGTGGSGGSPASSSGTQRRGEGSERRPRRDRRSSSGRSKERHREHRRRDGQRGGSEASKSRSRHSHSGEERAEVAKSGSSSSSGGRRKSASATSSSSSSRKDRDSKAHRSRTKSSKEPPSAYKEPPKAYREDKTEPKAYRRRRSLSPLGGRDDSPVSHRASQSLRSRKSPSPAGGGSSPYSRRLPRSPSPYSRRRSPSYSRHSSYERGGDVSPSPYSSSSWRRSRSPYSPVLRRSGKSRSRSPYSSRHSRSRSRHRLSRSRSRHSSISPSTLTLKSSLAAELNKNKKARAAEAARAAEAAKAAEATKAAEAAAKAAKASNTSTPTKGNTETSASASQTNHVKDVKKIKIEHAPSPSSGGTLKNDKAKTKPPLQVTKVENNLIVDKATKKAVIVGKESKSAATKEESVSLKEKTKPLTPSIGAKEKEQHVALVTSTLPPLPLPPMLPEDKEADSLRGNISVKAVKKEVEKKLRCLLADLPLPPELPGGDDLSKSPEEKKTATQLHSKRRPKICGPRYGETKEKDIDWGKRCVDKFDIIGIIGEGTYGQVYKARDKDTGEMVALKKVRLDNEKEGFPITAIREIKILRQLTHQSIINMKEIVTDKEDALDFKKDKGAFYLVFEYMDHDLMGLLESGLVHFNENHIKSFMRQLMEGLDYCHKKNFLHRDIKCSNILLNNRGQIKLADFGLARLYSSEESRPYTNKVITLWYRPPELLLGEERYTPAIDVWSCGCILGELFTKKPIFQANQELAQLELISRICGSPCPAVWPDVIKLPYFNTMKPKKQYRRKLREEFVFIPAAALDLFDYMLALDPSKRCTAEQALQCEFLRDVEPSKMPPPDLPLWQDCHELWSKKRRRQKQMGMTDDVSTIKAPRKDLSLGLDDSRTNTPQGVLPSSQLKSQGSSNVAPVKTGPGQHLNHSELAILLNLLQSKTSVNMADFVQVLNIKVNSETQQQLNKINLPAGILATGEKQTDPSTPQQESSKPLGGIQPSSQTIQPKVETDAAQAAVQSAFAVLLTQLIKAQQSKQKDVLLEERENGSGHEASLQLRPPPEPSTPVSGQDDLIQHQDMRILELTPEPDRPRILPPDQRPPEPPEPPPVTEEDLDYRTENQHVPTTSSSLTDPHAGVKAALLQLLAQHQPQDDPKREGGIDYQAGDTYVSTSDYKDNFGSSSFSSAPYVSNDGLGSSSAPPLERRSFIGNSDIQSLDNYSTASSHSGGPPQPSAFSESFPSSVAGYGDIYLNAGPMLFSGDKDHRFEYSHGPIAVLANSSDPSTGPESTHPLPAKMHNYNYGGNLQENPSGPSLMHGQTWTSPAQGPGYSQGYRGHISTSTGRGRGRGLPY

[28] = molecular target: T1, Cyclin-dependent kinase 12; assay: Irreversible inhibition of CDK12 in human MDA-MB-231 cells at 100 nM pretreated with compound for 4 hrs followed by compound washout measured after 6 hrs; type: cell-based
[29] = molecular target: T1, Cyclin-dependent kinase 12; assay: Inhibition of full length FLAG-tagged CDK12 (unknown origin) at Cys1039 residue expressed in HEK293T cells at 50 uM incubated for 2 hrs by mass spectrometry analysis; type: cell-based
[30] = molecular target: T1, Cyclin-dependent kinase 12; assay: Binding affinity to CDK12 (714 to 1069 residues) in HEK293T cells assessed as increase in thermal stability at 5 uM measured for 6 hrs by cellular thermal shift assay; type: cell-based

SMILES: C=CC(=O)Nc1ccc(-c2ccc3nc(CC(=O)Nc4nc(C5CC5)cs4)cn3n2)cc1F
- EC50 (MDA-MB-468): 7260 nM

SMILES: C=CC(=O)Nc1ccc(-c2ccc3nc(CC(=O)Nc4cc(C)no4)cn3n2)cc1F
- EC50 (MDA-MB-231 [1]): 2920 nM

SMILES: Cn1cc(-n2cnc3c(NCc4nc5cc(Cl)c(Cl)cc5[nH]4)nc(N4CCOCC4)nc32)cn1
- EC50 (MDA-MB-468): 20.3 nM
- EC50 (MDA-MB-231 [1]): 20.7 nM

SMILES: CCN(CC)CC(=O)N1CCN(c2nc(NCc3nc4cc(Cl)c(Cl)cc4[nH]3)c3ncn(CC)c3n2)CC1
- DC50 [2]: 0.38 nM

SMILES: C=CC(=O)Nc1ccc(-c2ccc3nc(CC(=O)Nc4nc(C)c(C)s4)cn3n2)cc1F
- EC50 (MDA-MB-468): 1160 nM
- EC50 (MDA-MB-231 [1]): 3140 nM

SMILES: C=CC(=O)Nc1ccc(-c2ccc3nc(CC(=O)Nc4cc(C5CC5)[nH]n4)cn3n2)cc1F
- Activity (MDA-MB-231 [3]): Active
- Activity (MDA-MB-231 [4]): Active
- EC50 (MDA-MB-468): 10.1 nM
- Activity (MDA-MB-231 [5]): Active
- Activity (MDA-MB-231 [6]): Active
- Activity (MDA-MB-231 [7]): Active
- EC50 (MDA-MB-231 [1]): 14.3 nM
- Activity (MDA-MB-231 [8]): Active
- Activity (MDA-MB-231 [9]): Active
- Activity (MDA-MB-231 [10]): Active
- Activity (MDA-MB-231 [11]): Active
- Activity (MDA-MB-231 [12]): Active
- Activity (MDA-MB-231 [13]): Active

SMILES: C=CC(=O)Nc1c(C)cc(-c2ccc3nc(CC(=O)Nc4cc(C5CC5)[nH]n4)cn3n2)cc1C
- EC50 (MDA-MB-468): 36.2 nM
- EC50 (MDA-MB-231 [1]): 75.9 nM

SMILES: C=CC(=O)Nc1ccc(-c2ccc3nc(CC(=O)Nc4ncc(CC)s4)cn3n2)cc1F
- EC50 (MDA-MB-468): 108 nM
- inhibition [14]: 80.7%
- IC50 [15]: 34.2 nM
- EC50 (MDA-MB-231 [1]): 120 nM
- inhibition [16]: 29.9%
- inhibition [17]: 92.1%

SMILES: C=CC(=O)Nc1ccc(-c2ccc3nc(CC(=O)Nc4cc(C5CC5)[nH]n4)cn3n2)cc1C
- EC50 (MDA-MB-468): 13.5 nM
- EC50 (MDA-MB-231 [1]): 30.3 nM

SMILES: C=CC(=O)Nc1ccc(-c2ccc3nc(CC(=O)Nc4ncc(C(C)C)s4)cn3n2)cc1F
- EC50 (MDA-MB-468): 608 nM
- EC50 (MDA-MB-231 [1]): 424 nM

SMILES: C=CC(=O)Nc1ccc(-c2ccc3nc(CC(=O)Nc4cc(C5CC5)[nH]n4)cn3n2)cc1Cl
- EC50 (MDA-MB-468): 47.9 nM
- EC50 (MDA-MB-231 [1]): 84.9 nM

SMILES: C=CC(=O)Nc1ccc(-c2ccc3nc(CC(=O)Nc4cc(C5CC5)[nH]n4)cn3n2)cc1OC
- EC50 (MDA-MB-468): 40.9 nM
- EC50 (MDA-MB-231 [1]): 46.4 nM

SMILES: C=CC(=O)Nc1c(F)cc(-c2ccc3nc(CC(=O)Nc4cc(C5CC5)[nH]n4)cn3n2)cc1F
- EC50 (MDA-MB-468): 196 nM
- EC50 (MDA-MB-231 [1]): 131 nM

SMILES: CCC(=O)Nc1ccc(-c2ccc3nc(CC(=O)Nc4cc(C5CCC5)[nH]n4)cn3n2)cc1F
- inhibition [18]: Active
- inhibition [19]: Active

SMILES: C=CC(=O)Nc1ccc(-c2ccc3nc(CC(=O)Nc4cc(C5CCC5)[nH]n4)cn3n2)cc1F
- Activity (MDA-MB-231 [3]): Active
- Activity (MDA-MB-231 [4]): Active
- EC50 (MDA-MB-468): 6 nM
- inhibition [20]: Active
- inhibition [21]: Active
- inhibition [22]: Active
- inhibition [23]: Active
- inhibition [14]: 93%
- inhibition [24]: 100%
- EC50 [25]: 40 nM
- Activity (MDA-MB-231 [5]): Active
- EC50 [26]: 5.38 nM
- IC50 [27]: 12.2 nM
- IC50 [15]: 15.5 nM
- Activity (MDA-MB-231 [6]): Active
- Activity (MDA-MB-231 [7]): Active
- EC50 (MDA-MB-231 [1]): 5 nM
- Activity (MDA-MB-231 [8]): Active
- Activity (MDA-MB-231 [9]): Active
- Activity (MDA-MB-231 [10]): Active
- Activity (MDA-MB-231 [11]): Active
- inhibition [28]: Active
- inhibition [29]: Active
- Activity (MDA-MB-231 [12]): Active
- Activity [30]: Active
- inhibition [16]: 73.8%
- Activity (MDA-MB-231 [13]): Active
- inhibition [17]: 92.5%

SMILES: C=CC(=O)Nc1ccc(-c2ccc3nc(CC(=O)Nc4ncc(C(C)(C)C)s4)cn3n2)cc1F
- EC50 (MDA-MB-468): 354 nM
- EC50 (MDA-MB-231 [1]): 219 nM

SMILES: C=CC(=O)Nc1cccc(-c2ccc3nc(CC(=O)Nc4cc(C5CC5)[nH]n4)cn3n2)c1
- EC50 (MDA-MB-468): 28.3 nM
- EC50 (MDA-MB-231 [1]): 126 nM

SMILES: C=CC(=O)Nc1ccc(-c2ccc3nc(CC(=O)Nc4cc(C5CC5)[nH]n4)cn3n2)cc1
- EC50 (MDA-MB-468): 36.4 nM
- EC50 (MDA-MB-231 [1]): 67.3 nM

SMILES: C=CC(=O)Nc1ccc(-c2ccc3nc(CC(=O)Nc4nc(C)cs4)cn3n2)cc1F
- EC50 (MDA-MB-468): 1300 nM
- EC50 (MDA-MB-231 [1]): 3040 nM

SMILES: C=CC(=O)Nc1ccccc1-c1ccc2nc(CC(=O)Nc3cc(C4CC4)[nH]n3)cn2n1
- EC50 (MDA-MB-468): 504 nM
- EC50 (MDA-MB-231 [1]): 352 nM

SMILES: CN(C)C/C=C/C(=O)Nc1ccc(C(=O)N2CCC[C@@H](Nc3ncc(Cl)c(-c4c[nH]c5ccccc45)n3)C2)cc1
- EC50 (MDA-MB-468): 6.9 nM
- inhibition [14]: 92.7%
- IC50 [15]: 14.1 nM
- EC50 (MDA-MB-231 [1]): 26.3 nM
- inhibition [16]: 59.7%
- inhibition [17]: 93.1%

SMILES: C=CC(=O)Nc1ccc(-c2ccc3nc(CC(=O)Nc4cc(C)ns4)cn3n2)cc1F
- EC50 (MDA-MB-468): 4520 nM

SMILES: C=CC(=O)Nc1ccc(-c2ccc3nc(CC(=O)Nc4cc(C(C)(C)C)on4)cn3n2)cc1F
- EC50 (MDA-MB-231 [1]): 2860 nM
